In data set [1] the test system is GSK-3β. The following applies: read-out: GSK-3β inhibition IC50; cited from earlier work.
For data set [2], the system named is Aβ42 induced neurotoxicity in SH-SY5Y cells. The conditions noted are these: cited from earlier work.
For data set [3], the target named is T1, GSK-3β (Homo sapiens, UniProt P49841). Description: ADP-Glo kinase luminescent assay, GSK-3β inhibition. It counts as biochemical. The conditions noted are these: for Ligand-lipophilic efficiency (LiPE): LiPE = pIC50 – CLogP. (In general: ADP-Glo turns the ADP formed in a reaction into a luminescent signal.)
For data set [4], the system named is GSK-3β mediated tau phosphorylation at pS396. Description: SH-SY5Y whole-cell lysate GSK-3β assay with human tau pS396 ELISA. It counts as biochemical. The following applies: for effect on GSK-3β mediated tau hyperphosphorylation (pS396): 2, 10 and 50 μM, 2 h, 37 °C, lysate fortified with 0.25% GSK-3β, ELISA. Background: ELISA stands for enzyme-linked immunosorbent assay.

Data set [5] can be described thus: Parallel artificial membrane permeability assay. The following applies: PAMPA; for Papp at 5 h, 20 μM: pH 7.4, PAMPA permeability classification, pH 7.4, 5 h. In general terms: The PAMPA barrier holds no transporters, so it reflects passive diffusion.
Data set [6] addresses T1, GSK-3β. The data set is described as follows: GSK-3β kinetic studies. It counts as biochemical. The conditions noted are these: 30 0 to 5 μM.
Data set [7] concerns panel of 41 human protein kinases. Description: Kinase selectivity screening, panel of 41 human protein kinases. It counts as biochemical. The following applies: 5 μM.
The test system of data set [8] is SH-SY5Y cells. The data set is described as follows: Cytotoxicity assessment in SH-SY5Y cells. It counts as cell-based, human. The following applies: 72 h.
In data set [9] the test system is Aβ42 induced neurotoxicity in SH-SY5Y cells. The data set is described as follows: Anti-Aβ42 neurotoxicity assay in SH-SY5Y cells. It counts as cell-based, human.

Read-outs that look alike come from different tables or passages of the source. A value given as a limit tells only on which side of the number the result lay.

T1 sequence (P49841 whole entry): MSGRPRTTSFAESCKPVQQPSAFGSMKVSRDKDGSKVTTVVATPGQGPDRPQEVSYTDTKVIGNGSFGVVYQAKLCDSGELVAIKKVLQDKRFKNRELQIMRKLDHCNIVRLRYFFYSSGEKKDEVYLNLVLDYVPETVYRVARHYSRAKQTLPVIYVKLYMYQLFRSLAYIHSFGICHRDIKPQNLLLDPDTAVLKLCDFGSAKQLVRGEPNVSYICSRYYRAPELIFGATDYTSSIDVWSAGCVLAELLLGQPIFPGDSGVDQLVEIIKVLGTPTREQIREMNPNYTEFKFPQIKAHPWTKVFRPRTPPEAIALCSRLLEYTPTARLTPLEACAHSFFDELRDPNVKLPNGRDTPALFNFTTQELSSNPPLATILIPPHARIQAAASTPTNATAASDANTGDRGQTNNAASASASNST

As to `O=C([O-])[O-].[Li+].[Li+]` [Lithium carbonate, lithium carbonate], the IC50 (in general, the point on the concentration scale where inhibition reaches its midpoint) in data set [1] is 2000 µM.
In the case of `O=c1cc(-c2ccc(O)c(O)c2)oc2cc(O)c([C@@H]3O[C@H](CO)[C@@H](O)[C@H](O)[C@H]3O)c(O)c12` [compound 1, isoorientin], in data set [2], the “effective dose protecting SH-SY5Y cells from Aβ42 (morphology)” value was 200 μM. Further, the EC50 (in general, the concentration at which the effect is half-maximal) in data set [2] (read-out: neuroprotective potency, EC50, parent compound) is 47 µM.
`O=c1cc(-c2ccc(O)c(O)c2)oc2c([C@@H]3O[C@H](CO)[C@@H](O)[C@H](O)[C@H]3O)c(O)cc(O)c12` [compound 3, orientin, reference compound] displayed an IC50 in data set [3] (GSK-3β inhibition, IC50, as stated in text) above 5000 µM.
With `COC(=O)[C@H]1O[C@@H](c2c(OC)cc3oc(-c4ccc(OC)c(OC)c4)cc(=O)c3c2OC)[C@H](O)[C@@H](O)[C@@H]1O` [compound 7, Methyl (2S,3S,4R,5R,6S)-6-(2-(3,4-Dimethoxyphenyl)-5,7-dimethoxy-4-oxo-4H-chromen-6-yl)-3,4,5-trihydroxytetrahydro-2H-pyran-2-carboxylate], the “fold increase of potency against GSK-3β in comparison with 1” value in [3] (ratio of IC50 values relative to isoorientin 1) was found to be 1.37 fold.
Turning to `COc1ccc(-c2cc(=O)c3c(OC)c([C@@H]4O[C@H](C(=O)NC(C)C)[C@@H](O)[C@H](O)[C@H]4O)c(OC)cc3o2)cc1OC` [compound 9, (2S,3S,4R,5R,6S)-6-(2-(3,4-Dimethoxyphenyl)-5,7-dimethoxy-4-oxo-4H-chromen-6-yl)-3,4,5-trihydroxy-N-isopropyltetrahydro-2H-pyran-2-carboxamide], in data set [3], the “Ligand-lipophilic efficiency (LiPE)” value is listed as at least 4. The “effect on GSK-3β mediated tau hyperphosphorylation (pS396)” value (“effect … (pS396)” for short) in data set [4] is “effectively attenuated tau hyperphosphorylation in a dose-dependent manner”. Moreover, the Papp – broadly, a coefficient for how fast a substance crosses the barrier – at 5 h, 20 μM in data set [5] is above 1.5 ×10⁻⁶ cm/s.
On to `COc1ccc(-c2cc(=O)c3c(OC)c([C@@H]4O[C@H](C(=O)NC5CCCCC5)[C@@H](O)[C@H](O)[C@H]4O)c(OC)cc3o2)cc1OC` [compound 17, (2S,3S,4R,5R,6S)-N-Cyclohexyl-6-(2-(3,4-dimethoxyphenyl)-5,7-dimethoxy-4-oxo-4H-chromen-6-yl)-3,4,5-trihydroxytetrahydro-2H-pyran-2-carboxamide], for which the “effect … (pS396)” value in data set [4] was “effectively attenuated tau hyperphosphorylation in a dose-dependent manner”. In [5], this molecule returned a Papp at 5 h, 20 μM above 1.5 ×10⁻⁶ cm/s.
The like results for `COc1ccc(-c2cc(=O)c3c(OC)c([C@@H]4O[C@H](C(=O)NCc5ccccc5)[C@@H](O)[C@H](O)[C@H]4O)c(OC)cc3o2)cc1OC` [compound 21, (2S,3S,4R,5R,6S)-6-(2-(3,4-Dimethoxyphenyl)-5,7-dimethoxy-4-oxo-4H-chromen-6-yl)-3,4,5-trihydroxy-N-benzyltetrahydro-2H-pyran-2-carboxamide] were, in that order, “effectively attenuated tau hyperphosphorylation in a dose-dependent manner” and 1 to 1.5 ×10⁻⁶ cm/s.
As for `COc1ccc(-c2cc(=O)c3c(OC)c([C@@H]4O[C@H](C(=O)N[C@@H](C)C(F)(F)F)[C@@H](O)[C@H](O)[C@H]4O)c(OC)cc3o2)cc1OC` [compound 30, (2S,3S,4R,5R,6S)-6-(2-(3,4-Dimethoxyphenyl)-5,7-dimethoxy-4-oxo-4H-chromen-6-yl)-3,4,5-trihydroxy-N-((S)-1,1,1-trifluoropropan-2-yl)tetrahydro-2H-pyran-2-carboxamide], the “selectivity to GSK-3β versus GSK-3α” value in data set [3] (5 μM, ratio of % inhibition) is 12.3 fold. Also, the “fold increased potency against GSK-3β compared to 9” value in data set [3] (30 compared to 9) is “approximately 9 fold”. For the same molecule, the “fold more potent against GSK-3β than epimer 31” value in data set [3] (30 compared to 31) is given as “about 4 fold”. Further, the “anti-tau effect relative to TDZD-8” value in data set [4] (10 μM, TDZD-8 at the same concentration) is “comparable to TDZD-8”. Also, the “effect … (pS396)” value in data set [4] is “effectively attenuated tau hyperphosphorylation in a dose-dependent manner”. In data set [6] (ATP 10 μM, GS2 8 to 66 μM), the “inhibition mode with respect to substrate GS2” value was “competed with the substrate GS2”. In data set [6] (GS2 17 μM, ATP 2 to 50 μM), the “inhibition mode with respect to ATP” value is “no competition between ATP and 30”. Further, the “inhibition of 40 out of 41 kinases in the test panel” value in data set [7] is “marginal or weak inhibition”. Moreover, the “dose with no observable cytotoxicity” value in data set [8] was at most 1000 µM. Also, the “cell viability recovered (from 40% with Aβ42 alone)” value in [9] (pretreatment 1.25 to 20 μM for 1 h, then 10 μM Aβ42 for 72 h, dose-dependent) was found to be 100%. Moreover, the “effective dose protecting SH-SY5Y cells from Aβ42 (morphology)” value in [9] (pretreatment, 10 μM Aβ42, 72 h) was 10 μM. Further, the recovery at 5 h, 20 μM in data set [5] (pH 7.4) stood at 30%. Besides, the Papp at 5 h, 20 μM in data set [5] was above 1.5 ×10⁻⁶ cm/s.
Take `COc1ccc(-c2cc(=O)c3c(OC)c([C@@H]4O[C@H](C(=O)N[C@H](C)C(F)(F)F)[C@@H](O)[C@H](O)[C@H]4O)c(OC)cc3o2)cc1OC` [compound 31, (2S,3S,4R,5R,6S)-6-(2-(3,4-Dimethoxyphenyl)-5,7-dimethoxy-4-oxo-4H-chromen-6-yl)-3,4,5-trihydroxy-N-((R)-1,1,1-trifluoropropan-2-yl)tetrahydro-2H-pyran-2-carboxamide]: the “Ligand-lipophilic efficiency (LiPE)” value in data set [3] is recorded as at least 4.

The record behind these values is paper PMC7368552 (ACS chemical neuroscience, 2018).
